“And” between values parts separate entries of the source, which are not always exact repeats. Equal entries are not always repeated. Values belong to the molecule of their own block, whether it stands above or below them.
System: Hs578T complex spheroid growth, percent test/control
Experiment: Anticancer human tumor Hs578T cell line growth inhibition [AhR];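 further: luminescent viability signal as a proxy for spheroid growth; spheroids exposed to agents for one week after three days of growth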
Details: for viability, T/C: stronger effect = lower value
Procedure, shortened: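 Complex tumor spheroids co-cultured with HUVEC and human MSC stroma; AhR antagonists tested in combination with standard-of-care and investigational agents. Top concentration at or near clinical Cmax (else 10 microM), half-log dilutions; growth expressed as percent test/control.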

[1] = curve of first compound, second compound 0.1 µM
[2] = curve of first compound, second compound 0.316 µM
[3] = curve of first compound, second compound 1 µM
[4] = curve of first compound, second compound 3.16 µM
[5] = curve of first compound, second compound 10 µM

IC50 [1]: 305 nM | IC50 [2]: 314 nM | IC50 [3]: 352 nM | IC50 [4]: 333 nM | IC50 [5]: 300 nM
SMILES: O=C(C=Cn1cnc(-c2cc(C(F)(F)F)cc(C(F)(F)F)c2)n1)NNc1cnccn1 + CC(CO)NC(=O)c1cc(-c2ccc(Cl)cc2)nn(-c2cnn(C)c2)c1=O
viability, T/C (second compound 0.1 µM, first compound 0.00949 µM): 102% | viability, T/C (second compound 0.1 µM, first compound 0.03 µM): 108% | viability, T/C (second compound 0.1 µM, first compound 0.0949 µM): 89.4% | viability, T/C (second compound 0.1 µM, first compound 0.3 µM): 51.8% | viability, T/C (second compound 0.1 µM, first compound 0.949 µM): 19.2% | viability, T/C (second compound 0.1 µM, first compound 3 µM): 17.2% | viability, T/C (second compound 0.316 µM, first compound 0.00949 µM): 109% | viability, T/C (second compound 0.316 µM, first compound 0.03 µM): 103% | viability, T/C (second compound 0.316 µM, first compound 0.0949 µM): 87.7% | viability, T/C (second compound 0.316 µM, first compound 0.3 µM): 53.3% | viability, T/C (second compound 0.316 µM, first compound 0.949 µM): 19.6% | viability, T/C (second compound 0.316 µM, first compound 3 µM): 18.4% | viability, T/C (second compound 1 µM, first compound 0.00949 µM): 107% | viability, T/C (second compound 1 µM, first compound 0.03 µM): 102% | viability, T/C (second compound 1 µM, first compound 0.0949 µM): 94.8% | viability, T/C (second compound 1 µM, first compound 0.3 µM): 55.1% | viability, T/C (second compound 1 µM, first compound 0.949 µM): 20.8% | viability, T/C (second compound 1 µM, first compound 3 µM): 18.6% | viability, T/C (second compound 3.16 µM, first compound 0.00949 µM): 108% | viability, T/C (second compound 3.16 µM, first compound 0.03 µM): 100% | viability, T/C (second compound 3.16 µM, first compound 0.0949 µM): 91.7% | viability, T/C (second compound 3.16 µM, first compound 0.3 µM): 51.5% | viability, T/C (second compound 3.16 µM, first compound 0.949 µM): 28.2% | viability, T/C (second compound 3.16 µM, first compound 3 µM): 21.9% | viability, T/C (second compound 10 µM, first compound 0.00949 µM): 97% | viability, T/C (second compound 10 µM, first compound 0.03 µM): 102% | viability, T/C (second compound 10 µM, first compound 0.0949 µM): 100% | viability, T/C (second compound 10 µM, first compound 0.3 µM): 50% | viability, T/C (second compound 10 µM, first compound 0.949 µM): 22.6% | viability, T/C (second compound 10 µM, first compound 3 µM): 24.4%

IC50 (curve of compound): 253 nM and 124 nM and 206 nM
SMILES: CCc1c2c(nc3ccc(O)cc13)-c1cc3c(c(=O)n1C2)COC(=O)[C@]3(O)CC
viability, T/C (compound 0.000949 µM): 83.3% and 77.6% and 78.6% | viability, T/C (compound 0.003 µM): 70.5% and 82.2% and 73.2% | viability, T/C (compound 0.00949 µM): 74% and 64.3% and 76.1% | viability, T/C (compound 0.03 µM): 64.6% and 63.2% and 75% | viability, T/C (compound 0.0949 µM): 62.3% and 56.5% and 61.9% | viability, T/C (compound 0.3 µM): 47.1% and 38.3% and 43.4%

IC50 [1]: > 10000 nM | IC50 [2]: 9590 nM | IC50 [3]: > 10000 nM | IC50 [4]: > 10000 nM | IC50 [5]: 770 nM
SMILES: Nc1ccn(C2OC(CO)C(O)C2(F)F)c(=O)n1 (centres undefined) + CC(CO)NC(=O)c1cc(-c2ccc(Cl)cc2)nn(-c2cnn(C)c2)c1=O
viability, T/C (second compound 0.1 µM, first compound 0.0316 µM): 54.6% | viability, T/C (second compound 0.1 µM, first compound 0.1 µM): 58.7% | viability, T/C (second compound 0.1 µM, first compound 0.316 µM): 62.1% | viability, T/C (second compound 0.1 µM, first compound 1 µM): 54% | viability, T/C (second compound 0.1 µM, first compound 3.16 µM): 51.9% | viability, T/C (second compound 0.1 µM, first compound 10 µM): 52.4% | viability, T/C (second compound 0.316 µM, first compound 0.0316 µM): 60.3% | viability, T/C (second compound 0.316 µM, first compound 0.1 µM): 63.5% | viability, T/C (second compound 0.316 µM, first compound 0.316 µM): 52.5% | viability, T/C (second compound 0.316 µM, first compound 1 µM): 52.3% | viability, T/C (second compound 0.316 µM, first compound 3.16 µM): 57.3% | viability, T/C (second compound 0.316 µM, first compound 10 µM): 47.9% | viability, T/C (second compound 1 µM, first compound 0.0316 µM): 61.1% | viability, T/C (second compound 1 µM, first compound 0.1 µM): 70.3% | viability, T/C (second compound 1 µM, first compound 0.316 µM): 55.3% | viability, T/C (second compound 1 µM, first compound 1 µM): 50.5% | viability, T/C (second compound 1 µM, first compound 3.16 µM): 57.9% | viability, T/C (second compound 1 µM, first compound 10 µM): 50.4% | viability, T/C (second compound 3.16 µM, first compound 0.0316 µM): 59.4% | viability, T/C (second compound 3.16 µM, first compound 0.1 µM): 61.8% | viability, T/C (second compound 3.16 µM, first compound 0.316 µM): 59.5% | viability, T/C (second compound 3.16 µM, first compound 1 µM): 54.5% | viability, T/C (second compound 3.16 µM, first compound 3.16 µM): 53.6% | viability, T/C (second compound 3.16 µM, first compound 10 µM): 58.5% | viability, T/C (second compound 10 µM, first compound 0.0316 µM): 55.1% | viability, T/C (second compound 10 µM, first compound 0.1 µM): 60.6% | viability, T/C (second compound 10 µM, first compound 0.316 µM): 47.7% | viability, T/C (second compound 10 µM, first compound 1 µM): 44.6% | viability, T/C (second compound 10 µM, first compound 3.16 µM): 51.5% | viability, T/C (second compound 10 µM, first compound 10 µM): 49.1%

IC50 (curve of compound): 1640 nM and 1300 nM and 1190 nM
SMILES: Nc1ccccc1NC(=O)c1ccc(CNC(=O)OCc2cccnc2)cc1
viability, T/C (compound 0.0316 µM): 110% and 93.1% and 105% | viability, T/C (compound 0.1 µM): 94.4% and 93.7% and 104% | viability, T/C (compound 0.316 µM): 90.6% and 82% and 81.3% | viability, T/C (compound 1 µM): 65.3% and 61.6% and 56.3% | viability, T/C (compound 3.16 µM): 29.8% and 16.3% and 22.4% | viability, T/C (compound 10 µM): 1.27% and 0.71% and 1.79%
